Holding throughout (conditions): exposure time 48 h
Assay [1] deals with Caenorhabditis elegans N2. Nature of the assay: lowest effective concentration for larval growth inhibition (size below effect threshold); higher = less potent. Summed up:
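Chemical exposure ran for 48 h at 20°C: 50 C. elegans N2 L1 larvae per 96-well in K-medium with killed bacteria, 1% DMSO and 0.5, 1, 5, 10, 50, 100 or 200 µM chemical. Extinction of each worm, read as size on the Biosort, was log-transformed and averaged by well. The lowest effective concentration is the first dose whose plate-adjusted mean size is below a fixed value and remains so at all higher doses; the value is 5.665.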

Assay [2] relates to Caenorhabditis elegans N2. Nature of the assay: mean nematode size ln(EXT) after 48 h, plate-adjusted (DMSO control set to 6) (ln(EXT), control-adjusted); higher = larger nematodes / less growth inhibition. Summed up:
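Synchronised C. elegans N2 L1 larvae (50 per well, 4–6 wells per treatment) were grown for 48 h at 20°C in K-medium with killed OP50, 1% DMSO and 0.5–200 µM chemical. The Biosort measured each worm's extinction, and debris was removed by a growth model. Values were natural-logged and averaged per well. Mean size was then plate-adjusted by subtracting the vehicle control mean and adding 6.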

In assay [3] the test system is Caenorhabditis elegans N2. Briefly: AC50 for larval growth inhibition (Hill fit); higher = less potent. Summed up:
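After 48 h at 20°C in K-medium with killed OP50, 1% DMSO and 0.5–200 µM chemical, synchronised C. elegans N2 L1 larvae (50 per well, 96-well plates) were sized individually as extinction on a COPAS Biosort. These values were log-transformed and averaged per well, and wells with fewer than 10 worms were excluded. The AC50 was derived from a constrained Hill fit by weighted genetic-algorithm regression, and out-of-range values are censored.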

Structures are written as SMILES. Bounds are passed on as bounds.

The compound `CNCc1ccc(NC(=O)c2c[nH]c3c2C(=O)CCC3)cc1` registered a lowest effective concentration in assay [1] of 200 µM. Moreover, the “mean nematode size ln(EXT) (ln)” value is 5.9 in assay [2] (0.5 µM); 6.14 in assay [2] (1 µM); 6.21 in assay [2] (5 µM); 6.19 in assay [2] (10 µM); 6.15 in assay [2] (50 µM); 6.09 in assay [2] (100 µM). Besides, the “mean nematode size ln(EXT) (ln)” value in assay [2] (200 µM) was 5.65. In assay [3], the “AC50 for larval growth inhibition” value was greater than 200 µM.
Turning to `Nc1ccc(Cl)cc1N` [4-Chloro-o-phenylenediamine], in assay [1], the lowest effective concentration amounted to 50 µM. For the same compound, the “mean nematode size ln(EXT) (ln)” value in assay [2] (0.5 µM) worked out at 5.89; in assay [2] (1 µM), 5.85; in assay [2] (5 µM) it was 5.91; in assay [2] (10 µM), 5.85; in assay [2] (50 µM), 5.36; in assay [2] (100 µM), 5.03. Also, the “mean nematode size ln(EXT) (ln)” value in assay [2] (200 µM) turned out to be 5.01. The “AC50 for larval growth inhibition” value in assay [3] is 39 µM.
With `CSC1=N[C@@](C)(c2ccccc2)C(=O)N1Nc1ccccc1` [Fenamidone], the lowest effective concentration in assay [1] is 200 µM. Besides, the “mean nematode size ln(EXT) (ln)” value in assay [2] (0.5 µM) was 5.9; in assay [2] (1 µM), 5.9; in assay [2] (5 µM) it was 5.86; in assay [2] (10 µM), 5.96; in assay [2] (50 µM), 6.02; in assay [2] (100 µM), 5.83. Also, in assay [2] (200 µM), the “mean nematode size ln(EXT) (ln)” value was 5.41. In addition, the “AC50 for larval growth inhibition” value in assay [3] stood at 105 µM.
Consider `O=NN(c1ccccc1)c1ccccc1` [N-Nitrosodiphenylamine], for which, in assay [1], the lowest effective concentration was found to be 200 µM. The “mean nematode size ln(EXT) (ln)” value in assay [2] (0.5 µM) came out at 6.12; in assay [2] (1 µM), 6.03; in assay [2] (5 µM), 6.08; in assay [2] (10 µM) it was 6.08; in assay [2] (50 µM), 6; in assay [2] (100 µM) it was 5.87. In assay [2] (200 µM), the “mean nematode size ln(EXT) (ln)” value was 5.26. Moreover, the “AC50 for larval growth inhibition” value in assay [3] was greater than 200 µM.
Take `CC[C@@H]1C[C@H](N(Cc2cc(C(F)(F)F)cc(C(F)(F)F)c2)C(C)=O)c2cc(C(F)(F)F)ccc2N1C(=O)OC(C)C`: in assay [1], the lowest effective concentration came to 200 µM. Also, the “mean nematode size ln(EXT) (ln)” value in assay [2] (0.5 µM) worked out at 5.74; in assay [2] (1 µM), 6.01; in assay [2] (5 µM), 5.87; in assay [2] (10 µM), 5.9; in assay [2] (50 µM), 5.83; in assay [2] (100 µM), 5.79. Moreover, in assay [2] (200 µM), the “mean nematode size ln(EXT) (ln)” value is 5.52. Besides, in assay [3], the “AC50 for larval growth inhibition” value was greater than 200 µM.
`Clc1cccc(Cl)c1Cl` [1,2,3-Trichlorobenzene] came in with a lowest effective concentration in assay [1] of 200 µM. The “mean nematode size ln(EXT) (ln)” value in assay [2] (0.5 µM) was found to be 6.08; in assay [2] (1 µM), 6.04; in assay [2] (5 µM), 6.06; in assay [2] (10 µM), 6.07; in assay [2] (50 µM), 6.02; in assay [2] (100 µM), 5.98. Also, the “mean nematode size ln(EXT) (ln)” value in assay [2] (200 µM) turned out to be 3.55. The “AC50 for larval growth inhibition” value in assay [3] was 122 µM.
Regarding `CCOP(=S)(OCC)OC(Cl)C(Cl)(Cl)Cl` (centres undefined) [Chlorethoxyfos], the lowest effective concentration in assay [1] came out at 50 µM. In addition, the “mean nematode size ln(EXT) (ln)” value amounted to 5.75 in assay [2] (0.5 µM); 5.76 in assay [2] (1 µM); 5.76 in assay [2] (5 µM); 5.7 in assay [2] (10 µM); 4.54 in assay [2] (50 µM); 5.09 in assay [2] (100 µM). Also, the “mean nematode size ln(EXT) (ln)” value in assay [2] (200 µM) came out at 3.42. Moreover, the “AC50 for larval growth inhibition” value in assay [3] is 13.2 µM.
In assay [1], `C[C@]12CC[C@@H]3c4ccc(O)cc4CC[C@H]3[C@@H]1CC[C@@H]2O` [beta-Estradiol] gave a lowest effective concentration of 200 µM. The “mean nematode size ln(EXT) (ln)” value came to 5.85 in assay [2] (0.5 µM); 5.81 in assay [2] (1 µM); 5.8 in assay [2] (5 µM); 5.84 in assay [2] (10 µM); 5.75 in assay [2] (50 µM); 5.94 in assay [2] (100 µM). In addition, the “mean nematode size ln(EXT) (ln)” value in assay [2] (200 µM) came out at 5.2. Moreover, the “AC50 for larval growth inhibition” value in assay [3] is 188 µM.
In assay [1], `CCOP(=S)(OCC)Oc1ccc([N+](=O)[O-])cc1` [Parathion] returned a lowest effective concentration of no more than 0.5 µM. Also, the “mean nematode size ln(EXT) (ln)” value in assay [2] (0.5 µM) amounted to 5.59; in assay [2] (1 µM), 5.66; in assay [2] (5 µM) it was 5.54; in assay [2] (10 µM) it was 5.03; in assay [2] (50 µM), 3.46; in assay [2] (100 µM), 3.63. Also, the “mean nematode size ln(EXT) (ln)” value in assay [2] (200 µM) is 3.36. Further, in assay [3], the “AC50 for larval growth inhibition” value turned out to be 13.4 µM.
In turn, `O=C(Nc1ccc(Cl)cc1)Nc1ccc(Cl)c(Cl)c1` [3,4,4'-Trichlorocarbanilide] showed a lowest effective concentration in assay [1] of no more than 0.5 µM. For the same compound, the “mean nematode size ln(EXT) (ln)” value in assay [2] (0.5 µM) is 5.51; in assay [2] (1 µM), 4.97; in assay [2] (5 µM) it was 4.28; in assay [2] (10 µM), 4.21; in assay [2] (50 µM), 4.26; in assay [2] (100 µM), 4.1. In assay [2] (200 µM), the “mean nematode size ln(EXT) (ln)” value was 3.81. For the same compound, the “AC50 for larval growth inhibition” value in assay [3] came to 0.964 µM.
Turning to `CN(C[C@@H](CC[N+]12CCC(C3CCCCC3)(CC1)CC2)c1ccc(Cl)c(Cl)c1)C(=O)c1cc(C(F)(F)F)cc(C(F)(F)F)c1`, the lowest effective concentration in assay [1] is 50 µM. The “mean nematode size ln(EXT) (ln)” value is 5.87 in assay [2] (0.5 µM); 6.12 in assay [2] (1 µM); 5.97 in assay [2] (5 µM); 5.76 in assay [2] (10 µM); 3.96 in assay [2] (50 µM); 3.97 in assay [2] (100 µM). For the same compound, the “mean nematode size ln(EXT) (ln)” value in assay [2] (200 µM) came out at 3.56. Further, the “AC50 for larval growth inhibition” value in assay [3] came out at 22.8 µM.

These data come from the supplement of paper PMC4858399.
